From ChEMBL document CHEMBL2073863, “Cloning and characterization of two human polyspecific organic cation transporters” (DNA Cell Biol, 1997)
Where “and” joins values, the source holds several entries; their conditions need not be identical. Equal values may be shown once.

Tests used:
[1] = target: T1, Solute carrier family 22 member 2 (Homo sapiens, UniProt O15244); experiment: TP_TRANSPORTER: inhibition of TEA uptake in Xenopus laevis oocytes; assay type: functional, cell-based, Oocyte
T1 sequence (O15244 whole entry): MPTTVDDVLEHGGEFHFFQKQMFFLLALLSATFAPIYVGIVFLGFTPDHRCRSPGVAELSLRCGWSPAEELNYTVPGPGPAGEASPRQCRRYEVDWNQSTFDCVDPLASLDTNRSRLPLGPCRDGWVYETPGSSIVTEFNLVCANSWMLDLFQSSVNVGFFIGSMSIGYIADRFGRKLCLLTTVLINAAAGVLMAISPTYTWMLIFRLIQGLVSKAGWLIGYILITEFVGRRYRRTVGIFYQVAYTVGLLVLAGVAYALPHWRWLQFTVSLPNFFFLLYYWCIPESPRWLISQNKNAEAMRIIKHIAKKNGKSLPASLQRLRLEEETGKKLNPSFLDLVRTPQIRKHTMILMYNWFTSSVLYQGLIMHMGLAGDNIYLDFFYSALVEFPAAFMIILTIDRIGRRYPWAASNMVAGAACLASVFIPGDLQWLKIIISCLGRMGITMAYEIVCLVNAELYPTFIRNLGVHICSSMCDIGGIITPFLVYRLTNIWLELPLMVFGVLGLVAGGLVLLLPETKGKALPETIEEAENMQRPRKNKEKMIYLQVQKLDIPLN

[2] = target: T2, Solute carrier family 22 member 1 (Homo sapiens, UniProt O15245); experiment: (§1) TP_TRANSPORTER: uptake in Xenopus laevis oocytes; assay type: functional, cell-based; settings: oocyte
T2 sequence (O15245 whole entry): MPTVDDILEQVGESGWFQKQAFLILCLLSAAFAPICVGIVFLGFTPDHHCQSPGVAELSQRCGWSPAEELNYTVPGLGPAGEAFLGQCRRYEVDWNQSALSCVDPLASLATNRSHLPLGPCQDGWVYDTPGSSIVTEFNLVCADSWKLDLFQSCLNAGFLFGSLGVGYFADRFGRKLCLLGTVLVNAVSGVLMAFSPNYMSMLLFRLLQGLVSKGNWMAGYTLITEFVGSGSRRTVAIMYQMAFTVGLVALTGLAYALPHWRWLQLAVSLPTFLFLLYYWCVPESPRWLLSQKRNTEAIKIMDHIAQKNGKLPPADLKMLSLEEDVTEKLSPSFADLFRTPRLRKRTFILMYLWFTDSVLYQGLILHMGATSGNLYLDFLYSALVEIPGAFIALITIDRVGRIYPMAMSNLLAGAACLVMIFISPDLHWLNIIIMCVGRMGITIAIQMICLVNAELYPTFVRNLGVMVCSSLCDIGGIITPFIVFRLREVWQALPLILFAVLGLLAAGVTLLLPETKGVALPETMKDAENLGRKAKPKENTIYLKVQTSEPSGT

[3] = substrate: CC[N+](CC)(CC)CC; experiment: cells, lysate or membranes named
[4] = substrate: C[N+](C)(C)CCO; experiment: cells, lysate or membranes named
[5] = substrate: C=C[C@H]1C[N@@]2CC[C@H]1C[C@H]2[C@H](O)c1ccnc2ccc(OC)cc12; experiment: TP_TRANSPORTER: uptake (electrogenesis) in Xenopus laevis oocytes; assay type: functional, cell-based, Oocyte
[6] = substrate: CNC(=O)c1cccnc1; experiment: as §1; assay type: functional, cell-based, Oocyte

CCN1/C(=C/c2ccc3ccccc3[n+]2CC)C=Cc2ccccc21
Ki [1]: 100 nM

C[n+]1ccc(-c2ccccc2)cc1
Activity [2]: substrate [not saturable]
Ki [1]: 2400 nM

CC[n+]1c(CC2C=C(C)N=C(c3ccccc3)N2C)ccc2ccccc21 (centres undefined) [Cyanine-863]
Ki [1]: 210 nM

CC(C)C(c1ccccc1)C(O)CC[N+]1(C)CCCCC1 (centres undefined) [MEPIPERPHENIDOL BROMIDE]
Ki [1]: 4800 nM

COc1cc(C(O)CNC(C)C)ccc1O (centres undefined) [METIPRENALINE]
Ki [1]: 570000 nM

CNC(=O)c1cccnc1 [NICOTINYL METHYLAMIDE]
Activity [2]: substrate [not saturable]
Ki [1]: 266000 nM

CCCCC[N+](CCCCC)(CCCCC)CCCCC [TETRAPENTYLAMMONIUM]
Ki [1]: 1500 nM

CC[N+](CC)(CC)CC [TETRYLAMMONIUM]
Activity [2]: substrate [not saturable]

B1: Solute carrier family 22 member 2 (Homo sapiens) (protein)
chain: T1 sequence (O15244 whole entry)
Km [3]: 31 µM and 76 µM
Km [4]: 190 µM and 210 µM
Km [5]: 2.6 µM
Km [6]: 300 µM
